One assay deals with T1, ATAD3A (Mus musculus, UniProt Q925I1).
T1 construct: endogenous in cells; host or cells: Neuro2A cells
T1 sequence (Q925I1 1-591): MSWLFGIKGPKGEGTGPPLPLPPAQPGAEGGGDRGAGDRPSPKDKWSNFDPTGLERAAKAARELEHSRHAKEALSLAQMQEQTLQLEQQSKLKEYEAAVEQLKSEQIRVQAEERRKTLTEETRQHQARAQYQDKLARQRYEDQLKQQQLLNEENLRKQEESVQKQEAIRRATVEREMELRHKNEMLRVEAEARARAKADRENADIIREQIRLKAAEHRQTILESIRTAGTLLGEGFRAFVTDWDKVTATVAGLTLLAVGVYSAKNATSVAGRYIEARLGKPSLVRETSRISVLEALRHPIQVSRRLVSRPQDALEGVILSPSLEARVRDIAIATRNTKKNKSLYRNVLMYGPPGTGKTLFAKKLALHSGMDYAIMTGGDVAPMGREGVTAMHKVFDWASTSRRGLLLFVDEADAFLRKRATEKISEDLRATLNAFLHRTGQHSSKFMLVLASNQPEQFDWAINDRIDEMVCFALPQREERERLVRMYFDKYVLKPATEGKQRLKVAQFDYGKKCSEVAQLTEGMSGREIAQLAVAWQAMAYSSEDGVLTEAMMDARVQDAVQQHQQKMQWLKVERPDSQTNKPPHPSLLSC
In words: ATAD3A dimerization by western blot, Neuro2A cells. It counts as cell-based. The note with it: Neuro2a cells exposed to 3-NP, non-reducing conditions. On the procedure:
To analyze dimerization of ATAD3A under non-reducing conditions, the cells or tissues were harvested and lysed with total lysates buffer. An equal amount of proteins was subject to 8% SDS-PAGE analysis in the presence or absence of β-mercaptoethanol (β-ME). For in vitro BMH crosslinking, the cell lysates were incubated with 1 mM BMH at r.t. for up to 25 min and quenched with 0.1% β-ME, followed by SDS-PAGE analysis. For in-vivo crosslinking, the cells were treated with cell-permeable crosslinker BMH (1 mM) for 20 min at 37° C. After crosslinking, the cells were quenched in PBS with 0.1% β-ME. For DSP crosslinking, the cells were treated with cell-permeable crosslinker for 5 min at 37° C., followed by quenching and washing with 10 mM Glycine in PBS. For formaldehyde (FA) crosslinking, the cells were incubated with PBS buffer containing 1% FA for 20 min at r.t., and the crosslinking reaction was terminated by washing in PBS containing 100 mM glycine. The cells were then lysed and subject to 8% SDS-PAGE analysis. For DTSSP crosslinking of proteins in mitochondrial fractions, isolated mitochondria samples were suspended in the mitochondrial lysis buffer (250 mM sucrose, 20 mM HEPES-NaOH, pH 7.5, 10 mM KCl, 1.5 mM MgCl2, 1 mM EDTA, 1 mM EGTA and protease inhibitor). An equal amount of crude mitochondria was incubated at 30° C. in the presence of 0.5 mM DTSSP. […]
In general terms: A western blot detects proteins with antibodies after separation by electrophoresis.

The next assay has as its target T2, Drp1/ATAD3A (Mus musculus, UniProt Q925I1).
T2 construct: The total lysates of cells or mouse striatum were subject to IP analysis; endogenous in cells; host or cells: HdhQ7 / HdhQ111 mouse striatal cells; wild-type mouse striatal cells exposed to 3-NP
T2 sequence (Q925I1 2-591 limits assumed): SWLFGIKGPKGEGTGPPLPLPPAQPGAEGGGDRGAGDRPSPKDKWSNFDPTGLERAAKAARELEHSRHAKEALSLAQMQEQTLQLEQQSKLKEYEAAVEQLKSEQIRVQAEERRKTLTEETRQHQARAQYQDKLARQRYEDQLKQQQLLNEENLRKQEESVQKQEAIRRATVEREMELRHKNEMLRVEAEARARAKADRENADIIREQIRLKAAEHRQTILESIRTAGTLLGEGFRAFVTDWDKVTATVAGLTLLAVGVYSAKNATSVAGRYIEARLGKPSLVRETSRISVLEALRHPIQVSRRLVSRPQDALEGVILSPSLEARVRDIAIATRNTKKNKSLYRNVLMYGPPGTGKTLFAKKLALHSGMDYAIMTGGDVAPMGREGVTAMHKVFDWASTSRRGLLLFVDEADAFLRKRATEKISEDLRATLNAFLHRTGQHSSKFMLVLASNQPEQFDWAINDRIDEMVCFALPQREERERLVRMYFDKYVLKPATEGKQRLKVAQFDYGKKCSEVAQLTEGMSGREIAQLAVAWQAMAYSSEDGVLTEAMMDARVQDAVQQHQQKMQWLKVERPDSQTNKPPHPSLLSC
In words: Immunoprecipitation of Drp1/ATAD3A binding in mouse striatal cells. It counts as cell-based. On the procedure:
Cells and mouse brain tissues were harvested and lysed in total lysis buffer ([…], pH 7.9, […], […], 1% Triton X-100, and protease inhibitor cocktail) for 30 mins on ice and centrifuged at 12,000×g for 10 min at 4° C. The supernatants were incubated with the indicated primary antibodies or control IgG (sc-2025 and sc-2027, Santa Cruz Biotechnology) overnight at 4° C., followed by incubation with protein A/G beads (sc-2003, Santa Cruz Biotechnology) for 2 h at 4° C. The immunoprecipitates were washed with lysis buffer three times for a total of 30 min and then subject to WB analysis.

Where no end group is shown, it is not given here.

Regarding `O=C(O)CC[N+](=O)[O-]` [3-NP, 3-nitropropionic acid, reference compound], the ATAD3A dimerization entry on ATAD3A is “increased”. For the same molecule, the “interaction between Drp1 and ATAD3A” value at Drp1/ATAD3A (wildtype mouse striatal cells, 3-NP 5 mM for 4 h) was “induced”.

Turning to “YGRKKRRQRRR-GG-EERRKT-NH2 (YGRKKRRQRRRGGEERRKT-NH2) [DA2, peptide from ATAD3A coiled-coil region homologous to Drp1, conjugated to TAT47-57]”, in the assay with Drp1/ATAD3A (HdhQ111 cells, peptide 1 μM/day for 4 days, vs TAT), the “binding of Drp1/ATAD3A” value is reported as “a trend toward inhibition”.

Values taken from patent US12403184B2, “Compositions and methods for treating neurodegenerative disroders” (priority 2018, dated 2025).
